The nature of the series: solvent given as SMILES.

Where the note is “in ClCCl”, `CCCCN1C(=O)C2=C(c3ccc(Br)cc3)NC(=O)C2=C1c1ccc(Br)cc1` yielded an emission maximum of 531 nm.

`C[Si](C)(C)[Si](C)(C)c1c2ccccc2cc2ccccc12`: the emission maximum is, setting by setting: (in C1CCCCC1) 429 nm; (in CC#N) 430 nm.

On to `C[Si](C)(C)c1ccc(-c2ccc(-c3ccc(-c4ccc(-c5ccc([Si](C)(C)C)cc5)cc4)c4nsnc34)cc2)cc1`, for which the emission maximum (in C1CCOC1) is given as 516 nm.

As for `CCCCCCOc1ccc(N(c2ccc(OCCCCCC)cc2)c2ccc(-c3sc(-c4ccc(N(c5ccc(OCCCCCC)cc5)c5ccc(OCCCCCC)cc5)cc4)c4nc(CC)c(CC)nc34)cc2)cc1`, the emission maximum (in ClCCl) is recorded as 725 nm.

As to `c1ccc(Nc2nc(Nc3ccccc3)nc(Nc3ccc4cc5ccccc5cc4c3)n2)cc1`, the emission maximum stood at 442 nm (in C1COCCO1), 441 nm (in CC#N), 441 nm (in CCCCOCCCC) and 440 nm (in CCOC(C)=O).

Regarding `Cc1ccc(C2C(C#N)=C(N)n3c(=O)c4ccccc4c(=O)n32)cc1` (configuration not stated), where the note is “in CS(C)=O”, the emission maximum worked out at 450 nm.

`CCCCCCCCOc1ccc(-c2c3c4n(c(-c5ccc(OCCCCCCCC)cc5)c3c3n2[B-](F)(F)[n+]2c(ccc5ccccc52)N=3)[B-](F)(F)[n+]2c(ccc3ccccc32)N=4)cc1` came in with an emission maximum (in ClC(Cl)Cl) of 682 nm.

`N#Cc1ccc2nc3[nH]c(=O)[nH]c(=O)c3nc2c1` came in with an emission maximum (in ClCCCl) of 420 nm.

As to `N#Cc1cc(N2c3ccccc3Sc3ccccc32)cc(N2c3ccccc3Sc3ccccc32)c1`, the emission maximum (in Cc1ccccc1) came out at 536 nm.

`COC(=O)c1c(C(=O)OC)c2ccc(-c3ccccc3)nn2c1C`: the emission maximum (in CCCCCC) was determined as 471 nm.

On to `O=c1oc2ccccc2c(O)c1C(CC(O)c1ccc(-c2ccc(Br)cc2)cc1)c1ccccc1` (configuration not stated), for which the emission maximum worked out at 403 nm (in CC#N), 392 nm (in CCO), 394 nm (in CO) and 397 nm (in O).

Turning to `C(C#Cc1ccc2ccc3cccc4ccc1c2c34)#Cc1cccc2ccccc12`, the emission maximum is recorded as 411 nm (in C1CCCCC1), 420 nm (in CC#N), 414 nm (in CO) and 420 nm (in ClCCl).

Turning to `CN(C)c1ccc(/C=C/c2nc3c(ccc4ccccc43)s2)cc1`, the emission maximum is, setting by setting: (in C1CCCCC1) 468 nm; (in CC#N) 524 nm.

For `COc1ccc(-c2nnc(-c3cc(-n4c5ccccc5c5ccccc54)c(-n4c5ccccc5c5ccccc54)cc3-c3nnc(-c4ccc(OC)cc4)o3)o2)cc1`, the emission maximum by setting is: (in CC#N) 515.81 nm; (in Cc1ccccc1) 459 nm; (in ClCCl) 487.92 nm.

In the case of `CCc1c(C)[nH]c(C2=[N+]3C(=Cc4c(C)c(CC)c(C)n4[B-]3(F)F)c3ccccc32)c1C`, the emission maximum runs as follows: (in C1CCOC1) 644 nm; (in CC#N) 643 nm; (in CCCCCC) 641 nm; (in CO) 642 nm; (in Cc1ccccc1) 651 nm; (in ClCCl) 650 nm.

The compound `C(=C(c1ccccc1)c1ccccc1)c1ccc(-c2cc(-c3ccc(C=C(c4ccccc4)c4ccccc4)cc3)c(-c3ccc(C=C(c4ccccc4)c4ccccc4)cc3)cc2-c2ccc(C=C(c3ccccc3)c3ccccc3)cc2)cc1` displayed an emission maximum (in C1CCOC1) of 440 nm.

Regarding `COc1ccc(-c2cnc(-c3cccnc3)o2)cc1OC`, the emission maximum (in ClCCl) was 420 nm.

The compound `CCOC(=O)/C=C/C1=C(c2ccc(C)cc2)C2=Nc3c(-c4ccc(C)cc4)c(Br)c(-c4ccc(C)cc4)n3[B-](F)(F)[N+]2=C1c1ccc(C)cc1` showed an emission maximum (in ClC(Cl)Cl) of 703 nm.

Turning to `CCC(C)[Si](C#Cc1c2nc3c4ccccc4c(=O)c4ccccc4c3nc2c(C#C[Si](C(C)CC)(C(C)CC)C(C)CC)c2nc3c4ccccc4c(=O)c4ccccc4c3nc12)(C(C)CC)C(C)CC` (configuration not stated), for the setting “in ClCCl”, the emission maximum worked out at 571 nm.

On to `CCCCCCOc1ccc(C#Cc2ccc(-c3ccc(-c4ccc(C#Cc5ccc(OCCCCCC)c(OCCCCCC)c5)s4)c4nsnc34)s2)cc1OCCCCCC`, for which the emission maximum runs as follows: (in C1CCCCC1) 600 nm; (in CCOC(C)=O) 635 nm; (in CN(C)C=O) 666 nm; (in COc1ccccc1) 636 nm; (in Cc1ccccc1) 620 nm; (in ClC(Cl)Cl) 648 nm. The emission maximum is 650 nm (in ClCCCl) and 649 nm (in ClCCl).

Consider `CC(C)[Si](C#Cc1c2cc3ccccc3cc2c(C#C[Si](C)(C)C)c2cc3ccccc3cc12)(C(C)C)C(C)C`, for which the emission maximum (in ClCCl) amounted to 649 nm.

For the setting “in ClCCl”, `c1ccc2c(c1)ccc1ccc3ccc4ccc5ccccc5c4c3c12` registered an emission maximum of 476 nm.

Turning to `C(=C\c1ccc(/C=C/c2ccc(N(c3ccccc3)c3ccccc3)cc2)c2nsnc12)/c1ccc(N(c2ccccc2)c2ccccc2)cc1`, the emission maximum (in C1CCOC1) is 637 nm; the emission maximum (in CCOC(C)=O) is 627 nm; the emission maximum (in CN(C)C=O) came to 690 nm; the emission maximum (in Cc1ccccc1) is on record as 611 nm; the emission maximum (in ClC(Cl)Cl) is reported as 651 nm; the emission maximum (in ClCCl) came to 659 nm.

Consider `COC(=O)C(Cc1ccc2oc(-c3ccncc3)nc2c1)NC(=O)OC(C)(C)C` (configuration not stated), for which the emission maximum is listed as 356.74 nm (in CC1CCCCC1), 374.95 nm (in CC#N) and 384.74 nm (in CO).

`CCOC(=O)CN1C(=O)C2=C(c3ccc(N4CCCCC4)cc3)N(CC(=O)OCC)C(=O)C2=C1c1ccc(N2CCCCC2)cc1`: the emission maximum turned out to be 590 nm (in CC#N), 603 nm (in CS(C)=O) and 575 nm (in Cc1ccccc1).

As to `CCCCC1(c2ccccc2)Nc2c(-c3ccc(N(C)c4ccccc4)cc3)ccc(-c3ccc(N(C)c4ccccc4)cc3)c2N=C1c1ccccc1` (configuration not stated), the emission maximum by setting is: (in C1CCOC1) 580 nm; (in CC#N) 602 nm; (in CCCCCC) 553 nm; (in CN(C)C=O) 603 nm; (in Cc1ccccc1) 573 nm; (in ClC(Cl)Cl) 589 nm.

As for `c1ccc(-c2ccc3c(c2)c2cc(-c4ccccc4)ccc2n3-c2ccc3c(c2)c2cc(-n4c5ccc(-c6ccccc6)cc5c5cc(-c6ccccc6)ccc54)ccc2n3-c2ccc(-c3nc(-c4ccccc4)nc(-c4ccccc4)n3)cc2)cc1`, the emission maximum came out at 457 nm (in Cc1ccccc1) and 480 nm (in O=P(c1ccccc1)(c1ccccc1)c1ccccc1Oc1ccccc1P(=O)(c1ccccc1)c1ccccc1).

Take `O=C1c2ccccc2C2=Cc3ccccc3B(O)N12`: the emission maximum is listed as 432 nm (in CC#N), 430 nm (in CO), 438 nm (in CS(C)=O) and 437 nm (in ClC(Cl)Cl).

Regarding `CCOC(=O)/C=C/C1=[N+]2C(=C(c3c(C)cc(C)cc3C)c3ccc(/C=C/C(=O)OCC)n3[B-]2(F)F)C=C1`, the emission maximum (in ClCCl) is on record as 602 nm.

`CCCCN(CCCC)c1ccc(C#Cc2cc(C#Cc3ccc(N(CCCC)CCCC)cc3)c(C#Cc3ccc([N+](=O)[O-])cc3)cc2C#Cc2ccc([N+](=O)[O-])cc2)cc1` yielded an emission maximum (in ClCCl) of 552 nm.

Take `CCCCCCCCN1c2ccc(C#Cc3ccc(C(F)(F)F)cc3)cc2Sc2cc(C=O)ccc21`: the emission maximum runs as follows: (in C1CCOC1) 512 nm; (in CC#N) 534 nm; (in CCCCCC) 490 nm; (in CO) 500 nm; (in CS(C)=O) 539 nm; (in Cc1ccccc1) 509 nm. Further, the emission maximum (in ClC(Cl)Cl) came out at 535 nm.

As to `COc1ccc2c(=O)c3c([nH]c2c1)-c1cc(Cl)ccc1NC3(C)C`, the emission maximum runs as follows: (in C1CCOC1) 489 nm; (in CC#N) 512 nm; (in CCCCO) 525 nm; (in CCCO) 525 nm; (in CCO) 525 nm; (in CCOC(C)=O) 497 nm. For the same compound, the emission maximum (in CN(C)C=O) came out at 509 nm; the emission maximum (in CO) turned out to be 532 nm; the emission maximum (in CS(C)=O) is recorded as 511 nm; the emission maximum (in Cc1ccccc1) was 477 nm; the emission maximum (in ClC(Cl)(Cl)Cl) was 469 nm; the emission maximum (in ClCCl) is 491 nm. In addition, the emission maximum by setting is: (in O) 555 nm; (in c1ccccc1) 478 nm.

In the case of `COc1ccc(/C=C(\c2ccccc2)c2nc3ccccc3s2)cc1`, the emission maximum reads like this: (in C1CCCCC1) 400 nm; (in CO) 420 nm.

With `CCC1(CC)c2ccccc2-c2c1c1c(c3c2C(CC)(CC)c2cc(/C=C/c4cccs4)ccc2-3)C(CC)(CC)c2ccccc2-1`, the emission maximum (in C1CCOC1) is 395 nm.

With `CC1(C)c2cc(/C=C/c3nc(/C=C/c4ccc5c(c4)C(C)(C)c4cc(N(c6ccccc6)c6ccccc6)ccc4-5)nc(/C=C/c4ccc5c(c4)C(C)(C)c4cc(N(c6ccccc6)c6ccccc6)ccc4-5)n3)ccc2-c2ccc(N(c3ccccc3)c3ccccc3)cc21`, the emission maximum (in C1CCOC1) worked out at 555 nm.

As to `CCn1c2ccccc2c2ccc(-c3ccc(OC)cc3)cc21`, the emission maximum (in C1CCCCC1) stood at 383 nm.

Consider `COc1ccc(-n2nc(C#N)c(N3CCC(N4CCCCC4)CC3)n2)cc1`, for which the emission maximum (in CC#N) stood at 403 nm.

As to `COc1cccc(/C=C/c2ccccc2)c1`, the emission maximum runs as follows: (in C1CCCCC1) 358 nm; (in CC#N) 359 nm; (in CC(C)O) 357 nm; (in CCCCOCCCC) 358 nm; (in CCOC(C)=O) 358 nm; (in CCOCC) 357 nm.

Consider `CCCCCCCCCCCCOc1cc2c3cc(OCCCCCCCCCCCC)c(OCCCCCCCCCCCC)cc3c3c(cc(OCCCCCCCCCCCC)c4nc5cc(C#Cc6ccc(OCCCCCCCC)cc6)c(C#Cc6ccc(OCCCCCCCC)cc6)cc5nc43)c2cc1OCCCCCCCCCCCC`, for which the emission maximum (in ClC(Cl)Cl) was found to be 657 nm.

Source of the values: the Deep4Chem optical property database.
